Experimental data from US10392366B2, “Azetidine compounds as GPR119 modulators for the treatment of diabetes, obesity, dyslipidemia and related disorders” (SANOFI, priority 2017, dated 2019).

Each compound was assayed against T1, human GPR119 (Homo sapiens, UniProt Q8TDV5) (assay: Functional cellular assay measuring GPR119-mediated cAMP release (HTRF) in HEK-293 cells stably expressing recombinant GPR119). Details: cell line expressing human GPR119, 30 minutes at room temperature.
T1 construct: expressed in transfected cells
T1 sequence (Q8TDV5 1-335): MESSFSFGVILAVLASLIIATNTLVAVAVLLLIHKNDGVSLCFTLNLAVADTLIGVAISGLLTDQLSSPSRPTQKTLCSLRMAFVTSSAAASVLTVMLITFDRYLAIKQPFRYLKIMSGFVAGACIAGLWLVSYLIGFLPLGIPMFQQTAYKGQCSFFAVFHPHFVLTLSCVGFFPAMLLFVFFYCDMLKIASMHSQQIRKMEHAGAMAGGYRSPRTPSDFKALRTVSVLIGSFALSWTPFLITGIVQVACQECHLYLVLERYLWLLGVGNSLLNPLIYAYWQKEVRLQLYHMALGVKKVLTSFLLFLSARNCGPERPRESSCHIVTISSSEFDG
Type: cell-based
Description: Functional Cellular Assays Measuring GPR119-mediated cAMP Release
Compounds of the present disclosure, which are agonists of GPR119, were characterized by functional assays measuring the cAMP response of HEK-293 cell lines stably expressing recombinant GPR119 from man, mouse or rat, or by using the hamster cell line HIT-T15 expressing GPR119 endogenously. The cAMP content was determined using a kit based on homogenous time-resolved fluorescence (HTRF) from Cisbio Corp. (cat. no. 62AM4PEC). For preparation, cells were split into T175 culture flasks and grown to near confluency in medium (DMEM/10% FCS for HEK-293 cells, and F-12K medium/10% horse serum/2.5% FCS for HIT-T15 cells, respectively). Medium was then removed and cells washed with PBS lacking calcium and magnesium ions, followed by proteinase treatment with accutase (Sigma-Aldrich, cat. no. A6964). Detached cells were washed and resuspended in assay buffer (1×HBSS; 20 mM HEPES, 0.1% BSA, 2 mM IBMX) and cellular density determined. They were then diluted to 400000 cells/mL and 25 μL-aliquots dispensed to the wells of 96-well plates. For measurement, 25 μL of test compound in assay buffer was added and incubated for 30 minutes at room temperature. After addition of HTRF reagents diluted in lysis buffer, the plates were incubated for 1 hour, followed by measuring the fluorescence ratio at 665 vs. 620 nm. Potency of the agonists was quantified by determining the concentrations that caused 50% of the maximal response/activation (EC50). See Table 6 for exemplary data obtained using the cell line expressing human GPR119.
For `C[S+]([O-])C1CN(c2ncc(N3CC[C@@H](Oc4ccc(C(=O)C5CC5)cc4)C3=O)cn2)C1` (single isomer, unassigned) [Compound 1-20], the EC50 was 1970 nM.
With `C[S+]([O-])C1CN(c2ncc(N3CC[C@@H](Oc4ccc(C(=O)C5CC5)cc4)C3=O)cn2)C1` (single isomer, unassigned) [Compound 1-21] the EC50 was 991 nM.
In the case of `C[S+]([O-])C1CN(c2ncc(N3CC[C@@H](Oc4ccc(OCC(F)(F)F)nc4)C3=O)cn2)C1` (single isomer, unassigned) [Compound 1-24], the EC50 is reported as 335 nM.
Work on `C[S+]([O-])C1CN(c2ncc(N3CC[C@@H](Oc4ccc(OCC(F)(F)F)nc4)C3=O)cn2)C1` (single isomer, unassigned) [Compound 1-25] yielded an EC50 of 292 nM.
`CC(C)[S+]([O-])C1CN(c2ncc(N3CC[C@@H](Oc4ccc(OCC(F)(F)F)nc4)C3=O)cn2)C1` (single isomer, unassigned) [Compound 1-35] showed an EC50 of 181 nM.
Compound `CC(C)[S+]([O-])C1CN(c2ncc(N3CC[C@@H](Oc4ccc(OCC(F)(F)F)nc4)C3=O)cn2)C1` (single isomer, unassigned) [Compound 1-36] has an EC50 of 158 nM.
Compound `CN(C)C(=O)C1CN(c2ncc(N3CCC(Cc4ccc(OCC(F)(F)F)nc4)C3=O)cn2)C1` (single isomer, unassigned) [Compound 1-42] has an EC50 of 157 nM.
With `CS(=O)(=O)C1CN(c2ncc(N3CCC(Cc4ccc(OCC(F)(F)F)nc4)C3=O)cn2)C1` (single isomer, unassigned) [Compound 1-43] the EC50 was 116 nM.
`CS(=O)(=O)C1CN(c2ncc(N3CCC(Cc4ccc(OCC(F)(F)F)nc4)C3=O)cn2)C1` (single isomer, unassigned) [Compound 1-44] was tested, and the EC50 was 138 nM.
`CN(C)C(=O)C1CN(c2ncc(N3CCC(Cc4ccc(OCC(F)(F)F)nc4)C3=O)cn2)C1` (single isomer, unassigned) [Compound 1-45] showed an EC50 of 203 nM.
`C[S+]([O-])C1CN(c2ncc(N3CCC(Cc4ccc(OCC(F)(F)F)nc4)C3=O)cn2)C1` (single isomer, unassigned) [Compound 1-46] gave an EC50 of 411 nM.
`C[S+]([O-])C1CN(c2ncc(N3CCC(Cc4ccc(OCC(F)(F)F)nc4)C3=O)cn2)C1` (single isomer, unassigned) [Compound 1-47] gave an EC50 of 1630 nM.
`N#Cc1cc(N2CC[C@@H](Oc3ccc(OCC4CC4)nc3)C2=O)cnc1N1CC(O)C1` [Compound 1-01] gave an EC50 of 57 nM.
In the case of `O=C1[C@H](Oc2ccc(OCC3CC3)nc2)CCN1c1cnc(N2CC(O)C2)c(F)c1` [Compound 1-02], the EC50 is reported as 206 nM.
`N#Cc1cc(N2CC[C@@H](Oc3ccc(Oc4ccc(F)cc4)nc3)C2=O)cnc1N1CC(O)C1` [Compound 1-03] showed an EC50 of 255 nM.
In the case of `CN(C)C(=O)C1CN(c2ncc(N3CC[C@@H](Oc4ccc(OCC5CC5)nc4)C3=O)cc2F)C1` [Compound 1-04], the EC50 is reported as 70 nM.
For `CN(C)C(=O)C1CN(c2ncc(N3CC[C@@H](Oc4ccc(OCC5CC5)nc4)C3=O)cc2C#N)C1` [Compound 1-05], the EC50 was 61 nM.
`CN(C)C(=O)C1CN(c2ccc(N3CC[C@@H](Oc4ccc(OCC5CC5)nc4)C3=O)cn2)C1` [Compound 1-06] gave an EC50 of 170 nM.
`COC(=O)C1CN(c2ccc(N3CC[C@@H](Oc4ccc(OCC5CC5)nc4)C3=O)cn2)C1` [Compound 1-07] gave an EC50 of 30 nM.
`CN(C)C(=O)C1CN(c2ncc(N3CC[C@@H](Oc4ccc(Oc5ccc(F)cc5)nc4)C3=O)cc2C#N)C1` [Compound 1-08] gave an EC50 of 92 nM.
`CN(C)C(=O)C1CN(c2ncc(N3CC[C@@H](Oc4ccc(OCC(F)(F)F)nc4)C3=O)cc2C#N)C1` [Compound 1-09] showed an EC50 of 64 nM.
Compound `CN(C)C(=O)C1CN(c2ccc(N3CC[C@@H](Oc4ccc(OCC(F)(F)F)nc4)C3=O)cn2)C1` [Compound 1-10] has an EC50 of 44 nM.
For `CN(C)C(=O)C1CN(c2ccc(N3CC[C@H](Oc4ccc(OCC(F)(F)F)nc4)C3=O)cn2)C1` [Compound 1-11], the EC50 was 421 nM.
In the case of `CN(C)C(=O)C1CN(c2ncc(N3CC[C@@H](Oc4ccc(OCC(F)(F)F)nc4)C3=O)cn2)C1` [Compound 1-12], the EC50 is reported as 50 nM.
`CN(C)C(=O)C1CN(c2ncc(N3CC[C@H](Oc4ccc(OCC(F)(F)F)nc4)C3=O)cn2)C1` [Compound 1-13] showed an EC50 of 257 nM.
`C[S+]([O-])C1CN(c2ncc(N3CC[C@@H](Oc4ccc(Oc5ccc(F)cc5)nc4)C3=O)cn2)C1` (some centres unmarked) [Compound 1-14] gave an EC50 of 2070 nM.
`C[S+]([O-])C1CN(c2ncc(N3CC[C@@H](Oc4ccc(OCC(F)(F)F)nc4)C3=O)cn2)C1` (some centres unmarked) [Compound 1-15] gave an EC50 of 248 nM.
For `CS(=O)(=O)C1CN(c2ncc(N3CC[C@@H](Oc4ccc(OCC(F)(F)F)nc4)C3=O)cn2)C1` [Compound 1-16], the EC50 was 58 nM.
Compound `CS(=O)(=O)C1CN(c2ncc(N3CC[C@@H](Oc4ccc(C(=O)C5CC5)cc4)C3=O)cn2)C1` [Compound 1-17] has an EC50 of 122 nM.
`CS(=O)(=O)C1CN(c2ncc(N3CC[C@@H](Oc4ccc(Oc5ccc(F)cc5)nc4)C3=O)cn2)C1` [Compound 1-18] showed an EC50 of 343 nM.
Work on `CN(C)C(=O)C1CN(c2ncc(N3CC(C)(C)C(Oc4ccc(OCC(F)(F)F)cc4)C3=O)cn2)C1` (centres unmarked) [Compound 1-19] yielded an EC50 of 180 nM.
Work on `O=C1[C@H](Oc2ccc(OCC(F)(F)F)nc2)CCN1c1cnc(N2CC(O)C2)nc1` [Compound 1-22] yielded an EC50 of 872 nM.
`CN(C)C(=O)C1CN(c2ncc(N3CC[C@@H](Oc4ccc(Oc5ccc(F)cc5)nc4)C3=O)cn2)C1` [Compound 1-23] was tested, and the EC50 was 189 nM.
`O=C1[C@H](Oc2ccc(OCC(F)(F)F)nc2)CCN1c1cnc(N2CC3(CCNC3=O)C2)nc1` [Compound 1-26] showed an EC50 of 448 nM.
In the case of `CS(=O)(=O)C1CN(c2ncc(N3CC[C@H](Oc4ccc(C(=O)C5CC5)cc4)C3=O)cn2)C1` [Compound 1-27], the EC50 is reported as 2210 nM.
In the case of `CN1CCC2(CN(c3ncc(N4CC[C@@H](Oc5ccc(OCC(F)(F)F)nc5)C4=O)cn3)C2)C1=O` [Compound 1-28], the EC50 is reported as 290 nM.
`CC(C)SC1CN(c2ncc(N3CC[C@@H](Oc4ccc(OCC(F)(F)F)nc4)C3=O)cn2)C1` [Compound 1-29] was tested, and the EC50 was 16 nM.
`COC(=O)CC1CN(c2ncc(N3CC[C@@H](Oc4ccc(OCC(F)(F)F)nc4)C3=O)cn2)C1` [Compound 1-30] gave an EC50 of 334 nM.
`CN(C)C(=O)C1CN(c2ncc(N3CC[C@@H](Oc4ccc(OCC(F)(F)F)nc4)C3=O)cn2)C1` [Compound 1-31] gave an EC50 of 129 nM.
`CS(=O)(=O)C1CN(c2ncc(N3CCC(Cc4ccc(C(=O)C5CC5)cc4)C3=O)cn2)C1` (centres unmarked) [Compound 1-32] was tested, and the EC50 was 195 nM.
`CS(=O)(=O)C1CN(c2ncc(N3CC[C@@H](Oc4ccc(C(=O)C5CC5)nc4)C3=O)cn2)C1` [Compound 1-33] showed an EC50 of 664 nM.
For `O=C1[C@H](Oc2ccc(OCC(F)(F)F)nc2)CCN1c1cnc(N2CC(N3CCCC3=O)C2)nc1` [Compound 1-34], the EC50 was 369 nM.
`CC(C)S(=O)(=O)C1CN(c2ncc(N3CC[C@@H](Oc4ccc(OCC(F)(F)F)nc4)C3=O)cn2)C1` [Compound 1-37] gave an EC50 of 71 nM.
For `NC1CN(c2ncc(N3CC[C@@H](Oc4ccc(OCC(F)(F)F)nc4)C3=O)cn2)C1` [Compound 1-38], the EC50 was 9840 nM.
For `CS(=O)(=O)C1CN(c2ncc(N3CC[C@@H](Oc4ccc(C(=O)C5CC5)c(F)c4)C3=O)cn2)C1` [Compound 1-39], the EC50 was 179 nM.
Compound `C[S+]([O-])C1CN(c2ncc(N3CC[C@@H](Oc4ccc(C(=O)C5CC5)c(F)c4)C3=O)cn2)C1` (some centres unmarked) [Compound 1-40] has an EC50 of 1820 nM.
In the case of `CC(C)[S+]([O-])C1CN(c2ncc(N3CC[C@@H](Oc4ccc(C(=O)C5CC5)c(F)c4)C3=O)cn2)C1` (some centres unmarked) [Compound 1-41], the EC50 is reported as 221 nM.
`CN(C)C(=O)C1CN(c2ncc(N3CC(C)(C)C(Oc4ccc(C(=O)C5CC5)cc4)C3=O)cn2)C1` (centres unmarked) [Compound 1-48] showed an EC50 of 752 nM.
`CN(C)C(=O)C1CN(c2ncc(N3CC(C)(C)C(Oc4ccc(C(=O)C5CC5)nc4)C3=O)cn2)C1` (centres unmarked) [Compound 1-49] showed an EC50 of 1360 nM.
Work on `CS(=O)(=O)C1CN(c2ncc(N3CC[C@H](Oc4ccc(OCC(F)(F)F)nc4)C3=O)cn2)C1` [Compound 1-50] yielded an EC50 of 321 nM.
Compound `CC(C)[S+]([O-])C1CN(c2ncc(N3CC[C@@H](Oc4ccc(OCC(F)(F)F)nc4)C3=O)cn2)C1` (some centres unmarked) [Compound 1-51] has an EC50 of 93 nM.
With `COC(=O)C1CN(c2ccc(N3CC[C@@H](Oc4ccc(OCC(F)(F)F)nc4)C3=O)cn2)C1` [Compound 1-52] the EC50 was 12 nM.
In the case of `CN(C)C(=O)C1CN(c2ncc(N3CC[C@@H](Oc4ccc(OCC(F)(F)F)cc4)C3=O)cn2)C1` [Compound 1-53], the EC50 is reported as 351 nM.
With `CN(C)C(=O)CC1CN(c2ncc(N3CC[C@@H](Oc4ccc(OCC(F)(F)F)nc4)C3=O)cn2)C1` [Compound 1-54] the EC50 was 1660 nM.
In the case of `CN(C)C(=O)C1CN(c2ncc(N3CC[C@@H](Oc4ccc(C(=O)C5CC5)cc4)C3=O)cn2)C1` [Compound 2-01], the EC50 is reported as 218 nM.
Work on `CN(C)C(=O)C1CN(c2ncc(N3CC[C@@H](Oc4ccc(C(=O)c5ccc(F)cc5)cc4)C3=O)cn2)C1` [Compound 2-02] yielded an EC50 of 137 nM.
